Columns and labels:
morningglory = assay: Test A preemergence; format: in vivo, Ipomoea spp.
In short: (§1)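 Injury scores run from 0, no effect, to 100, complete control, judged by eye against untreated plants roughly 10 days after treatment. Chemicals carried a surfactant in a non-phytotoxic solvent and went onto loam–sand soil preemergence or onto one- to two-leaf seedlings postemergence.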

wheat = assay: Test A preemergence; format: in vivo, Triticum aestivum
In short: as §1

chickweed = assay: Test C postemergence; format: in vivo, Stellaria media
In short: (§2)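 Rated visually on 0–100 (100 = complete control) after 13–15 days under glass. Treatments went onto freshly seeded loam/sand soil or onto emerged plants at the 1- to 4-leaf stage, using a surfactant-containing solvent formulation.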

large (Lg) crabgrass = assay: Test C preemergence; format: in vivo, Digitaria sanguinalis
In short: as §2

soybean = assay: Test C preemergence; format: in vivo, Glycine max
In short: as §2

Italian ryegrass = assay: Test C preemergence; format: in vivo, Lolium multiflorum
In short: as §2

galium = assay: Test C preemergence; format: in vivo, Galium aparine
In short: as §2

barnyardgrass [1] = assay: Test A preemergence; format: in vivo, Echinochloa crus-galli
In short: as §1

wild oat = assay: Test C postemergence; format: in vivo, Avena fatua
In short: as §2

barnyardgrass [2] = assay: Test C preemergence; format: in vivo, Echinochloa crus-galli
In short: as §2

velvetleaf = assay: Test A preemergence; format: in vivo, Abutilon theophrasti
In short: as §1

oilseed rape = assay: Test C preemergence; format: in vivo, Brassica napus
In short: as §2

barnyardgrass [3] = assay: Test B flooded paddy test; format: in vivo, Echinochloa crus-galli; conditions: Flood, 250 g ai/ha, 0 to 100 scale where 0 is no effect and 100 is complete control
In short: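 Post-emergence paddy-water application at the 2-leaf stage, with 3 cm flood kept for the whole test. Response was judged visually relative to controls after 13 to 15 greenhouse days, 0 indicating no effect and 100 complete control.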

corn = assay: Test A postemergence; format: in vivo, Zea mays
In short: as §1

[4] = 125 g ai/ha, 0 to 100 scale where 0 is no effect and 100 is complete control
[5] = 500 g ai/ha, 0 to 100 scale where 0 is no effect and 100 is complete control
[6] = 31 g ai/ha, postemergence, visual rating, scale 0 to 100 (0 no effect, 100 complete control), 13 to 15 days
[7] = 125 g ai/ha, postemergence, visual rating, scale 0 to 100 (0 no effect, 100 complete control)
[8] = Postemergence, 62 g ai/ha, scale 0 to 100 (0 no effect, 100 complete control), 13 to 15 days
[9] = 125 g ai/ha, preemergence, scale 0 (no effect) to 100 (complete control)
[10] = 250 g ai/ha, preemergence, scale 0 (no effect) to 100 (complete control)
[11] = Preemergence, 62 g ai/ha, scale 0 to 100, 0 no effect, 100 complete control

## N#Cc1cccc(Oc2ncc(Br)cn2)c1-n1cc(C(F)(F)F)cn1 [Compound 59, 3-[(5-bromo-2-pyrimidinyl)oxy]-2-[4-(trifluoromethyl)-1H-pyrazol-1-yl]benzonitrile]
morningglory; [4]
  Plant response rating, Morningglory: 80
morningglory; Ipomoea, pre-emergence, 240 h, 500 g ai/ha, 0 to 100 scale, 0 no effect, 100 complete control, approx. 10 days, read-out: Morningglory plant response rating
  pest or weed control at 500 g/ha: 100%
wheat; [4]
  Plant response rating, Wheat: 20
wheat; Triticum aestivum, pre-emergence, 240 h, 500 g ai/ha, 0 to 100 scale, 0 no effect, 100 complete control, approx. 10 days, read-out: Wheat plant response rating
  plant injury at 500 g/ha: 40%
chickweed; Stellaria media, post-emergence, 125 g ai/ha, postemergence, read-out: Plant response rating (0 to 100), Chickweed
  pest or weed control at 125 g/ha: 80%
chickweed; Stellaria media, post-emergence, 250 g ai/ha, postemergence, read-out: Plant response rating (0 to 100), Chickweed
  pest or weed control at 250 g/ha: 98%
chickweed; Stellaria media, post-emergence, Postemergence, 31 g ai/ha, scale 0 to 100 (0 no effect, 100 complete control), 13 to 15 days, read-out: Plant response rating, Chickweed
  pest or weed control at 31 g/ha: 40%
chickweed; Stellaria media, post-emergence, Postemergence, 62 g ai/ha, scale 0 to 100 (0 no effect, 100 complete control), read-out: Plant response rating, Chickweed
  pest or weed control at 62 g/ha: 70%
Large (Lg) crabgrass; Digitaria sanguinalis, pre-emergence, 62 g ai/ha, preemergence, scale 0 (no effect) to 100 (complete control), read-out: Crabgrass, Large plant response rating
  pest or weed control at 62 g/ha: 100%
Large (Lg) crabgrass; Digitaria sanguinalis, pre-emergence, 125 g ai/ha, preemergence, scale 0 (no effect) to 100 (complete control), read-out: Crabgrass, Large plant response rating
  pest or weed control at 125 g/ha: 100%
Large (Lg) crabgrass; Digitaria sanguinalis, pre-emergence, 250 g ai/ha, preemergence, scale 0 (no effect) to 100 (complete control), read-out: Crabgrass, Large plant response rating
  pest or weed control at 250 g/ha: 100%
Large (Lg) crabgrass; Digitaria sanguinalis, pre-emergence, Preemergence, 31 g ai/ha, scale 0 to 100, 0 no effect, 100 complete control, read-out: Plant response rating, Crabgrass, Large
  pest or weed control at 31 g/ha: 100%
soybean; Glycine max, pre-emergence, 62 g ai/ha, preemergence, scale 0 (no effect) to 100 (complete control), read-out: Soybean plant response rating
  plant injury at 62 g/ha: 90%
soybean; Glycine max, pre-emergence, 125 g ai/ha, preemergence, scale 0 (no effect) to 100 (complete control), read-out: Soybean plant response rating
  plant injury at 125 g/ha: 90%
soybean; Glycine max, pre-emergence, 250 g ai/ha, preemergence, scale 0 (no effect) to 100 (complete control), read-out: Soybean plant response rating
  plant injury at 250 g/ha: 95%
soybean; Glycine max, pre-emergence, Preemergence, 31 g ai/ha, scale 0 to 100, 0 no effect, 100 complete control, read-out: Plant response rating, Soybean
  plant injury at 31 g/ha: 85%
Italian ryegrass; Lolium multiflorum, pre-emergence, 62 g ai/ha, preemergence, scale 0 (no effect) to 100 (complete control), read-out: Ryegrass, Italian plant response rating
  pest or weed control at 62 g/ha: 85%
Italian ryegrass; Lolium multiflorum, pre-emergence, 125 g ai/ha, preemergence, scale 0 (no effect) to 100 (complete control), read-out: Ryegrass, Italian plant response rating
  pest or weed control at 125 g/ha: 90%
Italian ryegrass; Lolium multiflorum, pre-emergence, 250 g ai/ha, preemergence, scale 0 (no effect) to 100 (complete control), read-out: Ryegrass, Italian plant response rating
  pest or weed control at 250 g/ha: 90%
Italian ryegrass; Lolium multiflorum, pre-emergence, Preemergence, 31 g ai/ha, scale 0 to 100, 0 no effect, 100 complete control, read-out: Plant response rating, Ryegrass, Italian
  pest or weed control at 31 g/ha: 50%
galium; Galium, pre-emergence, 62 g ai/ha, preemergence, scale 0 (no effect) to 100 (complete control), read-out: Galium plant response rating
  pest or weed control at 62 g/ha: 100%
galium; Galium, pre-emergence, 125 g ai/ha, preemergence, scale 0 (no effect) to 100 (complete control), read-out: Galium plant response rating
  pest or weed control at 125 g/ha: 100%
galium; Galium, pre-emergence, 250 g ai/ha, preemergence, scale 0 (no effect) to 100 (complete control), read-out: Galium plant response rating
  pest or weed control at 250 g/ha: 100%
galium; Galium, pre-emergence, Preemergence, 31 g ai/ha, scale 0 to 100, 0 no effect, 100 complete control, read-out: Plant response rating, Galium
  pest or weed control at 31 g/ha: 100%
Barnyardgrass [1]; Echinochloa crus-galli, pre-emergence, 240 h, 125 g ai/ha, 0 to 100 scale where 0 is no effect and 100 is complete control, read-out: Plant response rating, Barnyardgrass
  pest or weed control at 125 g/ha: 80%
Barnyardgrass [1]; Echinochloa crus-galli, pre-emergence, 240 h, 500 g ai/ha, 0 to 100 scale, 0 no effect, 100 complete control, approx. 10 days, read-out: Barnyardgrass plant response rating
  pest or weed control at 500 g/ha: 100%
Wild oat; Avena fatua, post-emergence, 125 g ai/ha, postemergence, read-out: Plant response rating (0 to 100), Oat, Wild
  pest or weed control at 125 g/ha: 40%
Wild oat; Avena fatua, post-emergence, 250 g ai/ha, postemergence, read-out: Plant response rating (0 to 100), Oat, Wild
  pest or weed control at 250 g/ha: 40%
Wild oat; Avena fatua, post-emergence, Postemergence, 31 g ai/ha, scale 0 to 100 (0 no effect, 100 complete control), 13 to 15 days, read-out: Plant response rating, Oat, Wild
  pest or weed control at 31 g/ha: 25%
Wild oat; Avena fatua, post-emergence, Postemergence, 62 g ai/ha, scale 0 to 100 (0 no effect, 100 complete control), read-out: Plant response rating, Oat, Wild
  pest or weed control at 62 g/ha: 25%
Barnyardgrass [2]; Echinochloa crus-galli, pre-emergence, 62 g ai/ha, preemergence, scale 0 (no effect) to 100 (complete control), read-out: Barnyardgrass plant response rating
  pest or weed control at 62 g/ha: 100%
Barnyardgrass [2]; Echinochloa crus-galli, pre-emergence, 125 g ai/ha, preemergence, scale 0 (no effect) to 100 (complete control), read-out: Barnyardgrass plant response rating
  pest or weed control at 125 g/ha: 100%
Barnyardgrass [2]; Echinochloa crus-galli, pre-emergence, 250 g ai/ha, preemergence, scale 0 (no effect) to 100 (complete control), read-out: Barnyardgrass plant response rating
  pest or weed control at 250 g/ha: 100%
Barnyardgrass [2]; Echinochloa crus-galli, pre-emergence, Preemergence, 31 g ai/ha, scale 0 to 100, 0 no effect, 100 complete control, read-out: Plant response rating, Barnyardgrass
  pest or weed control at 31 g/ha: 80%
velvetleaf; [4]
  Plant response rating, Velvetleaf: 100
velvetleaf; Abutilon theophrasti, pre-emergence, 240 h, 500 g ai/ha, 0 to 100 scale, 0 no effect, 100 complete control, approx. 10 days, read-out: Velvetleaf plant response rating
  pest or weed control at 500 g/ha: 100%
Oilseed rape; Brassica napus, pre-emergence, 62 g ai/ha, preemergence, scale 0 (no effect) to 100 (complete control), read-out: Oilseed Rape plant response rating
  plant injury at 62 g/ha: 100%
Oilseed rape; Brassica napus, pre-emergence, 125 g ai/ha, preemergence, scale 0 (no effect) to 100 (complete control), read-out: Oilseed Rape plant response rating
  plant injury at 125 g/ha: 100%
Oilseed rape; Brassica napus, pre-emergence, 250 g ai/ha, preemergence, scale 0 (no effect) to 100 (complete control), read-out: Oilseed Rape plant response rating
  plant injury at 250 g/ha: 100%
Oilseed rape; Brassica napus, pre-emergence, Preemergence, 31 g ai/ha, scale 0 to 100, 0 no effect, 100 complete control, read-out: Plant response rating, Oilseed Rape
  plant injury at 31 g/ha: 90%
Barnyardgrass [3]; Echinochloa crus-galli, read-out: Plant response rating, Barnyardgrass
  pest or weed control at 250 g/ha: 40%
corn; Zea mays, post-emergence, 240 h, 125 g ai/ha, 0 to 100 scale where 0 is no effect and 100 is complete control
  Corn plant response rating (crop injury, 0 = no effect, 100 = complete kill) at 125 g/ha: 60%
corn; Zea mays, post-emergence, 240 h, 500 g ai/ha, 0 to 100 scale, 0 no effect, 100 complete control, read-out: Plant response rating Corn
  plant injury at 500 g/ha: 100%

## N#Cc1cccc(Oc2ncc(Cl)cn2)c1-n1cc(I)cn1 [Compound 204]
morningglory; 125 g ai/ha
  Morningglory plant response rating (0 to 100 scale): 90
morningglory; [5]
  Morningglory plant response rating: 90
wheat; 125 g ai/ha
  Wheat plant response rating (0 to 100 scale): 40
wheat; [5]
  Wheat plant response rating: 60
chickweed; [6]
  Chickweed plant response rating: 75
chickweed; [7]
  Plant response rating, Chickweed: 98
chickweed; 250 g ai/ha, postemergence
  Plant response rating (0 to 100), Chickweed: 100
chickweed; [8]
  Plant response rating, Chickweed: 95
Large (Lg) crabgrass; [9]
  Crabgrass, Large plant response rating: 100
Large (Lg) crabgrass; [10]
  Crabgrass, Large plant response rating: 100
Large (Lg) crabgrass; [11]
  Plant response rating, Crabgrass, Large: 100
soybean; [9]
  Soybean plant response rating: 65
soybean; [10]
  Soybean plant response rating: 80
soybean; [11]
  Plant response rating, Soybean: 35
Italian ryegrass; [9]
  Ryegrass, Italian plant response rating: 75
Italian ryegrass; [10]
  Ryegrass, Italian plant response rating: 95
Italian ryegrass; [11]
  Plant response rating, Ryegrass, Italian: 35
galium; [9]
  Galium plant response rating: 100
galium; [10]
  Galium plant response rating: 100
galium; [11]
  Plant response rating, Galium: 100
Barnyardgrass [1]; 125 g ai/ha
  Barnyardgrass plant response rating (0 to 100 scale, 0 is no effect, 100 is complete control): 70
Barnyardgrass [1]; [5]
  Barnyardgrass plant response rating: 100
Wild oat; [6]
  Oat, Wild plant response rating: 20
Wild oat; [7]
  Plant response rating, Oat, Wild: 15
Wild oat; 250 g ai/ha, postemergence
  Plant response rating (0 to 100), Oat, Wild: 15
Wild oat; [8]
  Plant response rating, Oat, Wild: 15
Barnyardgrass [2]; [9]
  Barnyardgrass plant response rating: 100
Barnyardgrass [2]; [10]
  Barnyardgrass plant response rating: 100
Barnyardgrass [2]; [11]
  Plant response rating, Barnyardgrass: 95
velvetleaf; 125 g ai/ha
  Velvetleaf plant response rating (0 to 100 scale): 80
velvetleaf; [5]
  Velvetleaf plant response rating: 100
Oilseed rape; [9]
  Oilseed Rape plant response rating: 98
Oilseed rape; [10]
  Oilseed Rape plant response rating: 100
Oilseed rape; [11]
  Plant response rating, Oilseed Rape: 95
Barnyardgrass [3]
  Plant response rating, Barnyardgrass: 20
corn; [4]
  Corn plant response rating: 50
corn; [5]
  Plant response rating, Corn: 60

Source: patent US9695155B2, “Herbicidal substituted pyrimidinyloxy benzene compounds” (E. I. DU PONT DE NEMOURS AND COMPANY, priority 2013, dated 2017)
